Experimental data as given in patent US6579851B2, “Effects of glucagon-like peptide-1 (7-36) on antro-pyloro-duodenal motility” (Amylin Pharmaceuticals, Inc., priority 2000, dated 2003).
Marks after values point to notes of the source that are not given here.

Key:
[1] = test system: antro-duodenal motility; test: Antro-duodenal motility by perfusion manometry; type: in vivo, human; conditions: for Duodenal Motility Contractions: sum of three duodenal side holes; for Antral Motility Contractions: sum of two antral side holes
Description: (§1) Inhibition of antro-duodenal activity is assessed directly by motility recordings using methods that are well known to the skilled artisan. Contractile events are analyzed with a computer and validated software (Katschinski et al., Gastroenterol. 103, 383-91 (1992)) and only peaks with amplitudes of at least 10 mmHg and a duration of at least 2 s are considered true contractions. Duodenal phase III is defined as the occurrence of regular contractions at a frequency of ≧10/min for at least 2 min in the duodenum propagated aborally.
In one embodiment, the data are analyzed in 10-min segments separately for antrum and duodenum by summarizing (frequency, motility index) or averaging (amplitude) the values derived from, the two antral and three duodenal side holes, respectively. Motility indexes are identified as the area under the contractions and are expressed in mmHg·s·min^−1. Antral contractions are determined to be antro-pyloro-duodenally propagated waves if the onset of the pressure wave recorded in the most proximal duodenal side hole, occurs within 5 sec after the onset of a pressure wave recorded in one of the antral side holes and if both wave are registered by all side holes in between.
(§2) All studies were performed after an overnight fast.
(§3) Perfusion manometry was recorded using a nine-lumen duodenal sleeve/side-hole catheter (Dentsleeve, South Australia, Australia). The manometric assembly incorporated a 4.5 cm long sleeve sensor, two antral side-holes (2 cm apart), and three duodenal side-holes (2 cm apart), beginning at the proximal and distal end of the sleeve, respectively. Two more side-holes were positioned across the sleeve spaced 1.5 cm apart. An additional lumen located 12 cm distal to the sleeve sensor was used for duodenal perfusion.
(§4) The correct position of the duodenal probe with the sleeve array straddling the pylorus was fluoroscopically checked before start of each experiment, and monitored throughout each study by measuring the transmucosal potential difference at the distal antral and the proximal duodenal port, as previously described (Schirra et al. J Clin Invest 97, 92-103 (1996)). A difference of at least −15 mV indicated correct transpyloric position of the tube.
(§5) The motility channels were perfused at a rate of 0.3 ml/min using a low-compliance pneumohydraulic pump (Arndorfer Medical Specialists, Greendale, Wis.). Pressures were measured by external transducers. Data were simultaneously recorded on the screen of a multichannel chart system (PC Polygraph, Synectics Medical, Stockholm, Sweden) and stored in the memory of a personal computer. Data were sampled and digitized at 8 Hz followed by digital smoothing by a factor of 2.

[2] = test system: pyloric motility; test: Pyloric motility (IPPW, pyloric tone) and duodenal phase III by perfusion manometry; type: in vivo, human; conditions: for Volunteers with duodenal phase III: within 10 min after GLP-1 infusion; for Pyloric Motility IPPW: actual values; for Pyloric tone: values over basal
Description: as §1
As used herein, “inhibition” of antro-pyloro-duodenal motility is defined as a reduction in the motility index. Other methods for measuring motility can be used. One of skill in the art will appreciate that a significant inhibition, including total inhibition, of motility will be useful.
The present invention also relates to therapeutic methods associated with stimulating pyloric motility. Two parameters used to describe pyloric motility are: 1) Isolated pyloric pressure waves (IPPW), defined as contractions registered by the sleeve with or without simultaneous contractions in maximally one sleeve-side-hole in the absence of associated (±3 sec) waves of any amplitude in the adjacent antral and duodenal side-holes and 2) pyloric tone. Pyloric tone is measured by deducting the basal pressure recorded by the antral side hole at the proximal end of the sleeve, from the basal pressure recorded by the sleeve. Basal pressures is defined as the mean pressure after excluding contractions; it is obtained each minute and used to calculate mean pyloric tone.
All values were expressed as mean±SEM. […] Differences were considered significant at P<0.05.
as §2, §3, §4, §5

[3] = intraduodenal lipid, high dose 1.2 pmol·kg−1·min−1 iv.
[4] = intraduodenal lipid, low dose 0.4 pmol·kg−1·min−1 iv.
[5] = intraduodenal saline, high dose 1.2 pmol·kg−1·min−1 iv.
[6] = intraduodenal saline, low dose 0.4 pmol·kg−1·min−1 iv.
[7] = low dose GLP-1, interdigestive, duodenal saline
[8] = low dose GLP-1, interdigestive state

SMILES: CC[C@H](C)[C@H](NC(=O)[C@H](Cc1ccccc1)NC(=O)[C@H](CCC(=O)O)NC(=O)[C@H](CCCCN)NC(=O)[C@H](C)NC(=O)[C@H](C)NC(=O)[C@H](CCC(N)=O)NC(=O)CNC(=O)[C@H](CCC(=O)O)NC(=O)[C@H](CC(C)C)NC(=O)[C@H](Cc1ccc(O)cc1)NC(=O)[C@H](CO)NC(=O)[C@H](CO)NC(=O)[C@@H](NC(=O)[C@H](CC(=O)O)NC(=O)[C@H](CO)NC(=O)[C@@H](NC(=O)[C@H](Cc1ccccc1)NC(=O)[C@@H](NC(=O)CNC(=O)[C@H](CCC(=O)O)NC(=O)[C@H](C)NC(=O)[C@@H](N)Cc1c[nH]cn1)[C@@H](C)O)[C@@H](C)O)C(C)C)C(=O)N[C@@H](C)C(=O)N[C@@H](Cc1c[nH]c2ccccc12)C(=O)N[C@@H](CC(C)C)C(=O)N[C@H](C(=O)N[C@@H](CCCCN)C(=O)NCC(=O)N[C@@H](CCCNC(=N)N)C(N)=O)C(C)C [GLP-1, glucagon-like peptide-1(7-36)amide]
- Antral Amplitude [1, 3]: 23.0 ± 2.7 mmHg
- Antral Motility Index [1, 3]: 628 ± 249 mmHg*s/60 min
- Duodenal Amplitude [1, 3]: 19.2 ± 3.1 mmHg
- Duodenal Motility Index [1, 3]: 1174 ± 499 mmHg*s/60 min
- Duodenal Motility Contractions [1, 3]: 16.6 ± 5.9 number / 60 min
- Antral Motility Contractions [1, 3]: 9.2 ± 2.9 number / 60 min
- Antral Amplitude [1, 4]: 23.6 ± 3.1 mmHg
- Antral Motility Index [1, 4]: 880 ± 351 mmHg*s/60 min
- Duodenal Amplitude [1, 4]: 26.0 ± 3.3 mmHg
- Duodenal Motility Index [1, 4]: 2776 ± 890 mmHg*s/60 min
- Duodenal Motility Contractions [1, 4]: 29.5 ± 5.8 number / 60 min
- Antral Motility Contractions [1, 4]: 12.1 ± 4.1 number / 60 min
- Antral Amplitude [1, 5]: 21.1 ± 3.1 mmHg
- Antral Motility Index [1, 5]: 957 ± 322 mmHg*s/60 min
- Antro-Pyloro-Duodenal Propagated Contractions [1, 5]: 0.0* number/60 min
- Duodenal Amplitude [1, 5]: 17.5 ± 1.9 mmHg
- Duodenal Motility Index [1, 5]: 1119 ± 226 mmHg*s/60 min
- Duodenal Motility Contractions [1, 5]: 16.6 ± 3.9 number / 60 min
- Antral Motility Contractions [1, 5]: 9.6 ± 2.8 number / 60 min
- Antral Amplitude [1, 6]: 31.1 ± 3.1 mmHg
- Antral Motility Index [1, 6]: 1478 ± 564 mmHg*s/60 min
- Antro-Pyloro-Duodenal Propagated Contractions [1, 6]: 0.0* number/60 min
- Duodenal Amplitude [1, 6]: 25.0 ± 2.5 mmHg
- Duodenal Motility Index [1, 6]: 3447 ± 1624 mmHg*s/60 min
- Duodenal Motility Contractions [1, 6]: 36.0 ± 14.7 number / 60 min
- Antral Motility Contractions [1, 6]: 12.6 ± 2.8 number / 60 min
- Onset of inhibition of antro-duodenal motility after starting GLP-1 [1, 7]: ≤ 2 min
- Time to nearly complete inhibition of antro-duodenal motility [1, 7]: ≤ 20 min
- Subjects with duodenal phases III ([2]; GLP-1 infusion in conjunction with lipid perfusion): two out of 11
- Volunteers with duodenal phase III ([2]; high dose GLP-1, interdigestive state): five
- Pyloric Motility IPPW [2, 3]: 15.5 ± 2.1 number/10 min
- Pyloric tone [2, 3]: 8.6 ± 1.0 mmHg
- Pyloric Motility IPPW [2, 4]: 15.7 ± 2.5 number/10 min
- Pyloric tone [2, 4]: 7.4 ± 1.0 mmHg
- Pyloric Motility IPPW [2, 5]: 8.6 ± 1.3 number/10 min
- Pyloric tone [2, 5]: 7.3 ± 1.5 mmHg
- Pyloric Motility IPPW [2, 6]: 10.1 ± 1.9 number/10 min
- Pyloric tone [2, 6]: 5.3 ± 0.9 mmHg
- Time until increase of pyloric tone was fully established [2, 8]: ≤ 20 min
- Time until increase of pyloric tone was significant [2, 8]: ≤ 10 min
- Volunteers with duodenal phase III [2, 8]: seven out of 11
